Literature values in patent US20240115492A1, “AN ORODISPERSIBLE PHARMACEUTICAL SOLID DOSAGE FORM OF RASAGILINE” (INTAS PHARMACEUTICALS LTD., priority 2021, published 2024).

C#CCN(C)[C@H](C)Cc1ccccc1 [selegiline]
Selegiline plasma exposure, ODT versus conventional tablets (10 mg orally disintegrated tablets vs conventional 10 mg tablets): twelve-time higher
selegiline absorbed through the mucous membrane of the mouth (ODT form (10 mg), within 1 minute): about 30%
